Values of other authors, collected in patent US12280058B2, “Gasotransmitter metabolites and Alzheimer's disease” (Board of Supervisors of Louisiana State University and …, priority 2020, dated 2025).

Assays:
CSE = CSE (Homo sapiens, UniProt P32929); conditions: read-out: IC50 (CSE inhibitor)
infarct = conditions: administration

CSE, sequence (P32929 whole entry, species assumed): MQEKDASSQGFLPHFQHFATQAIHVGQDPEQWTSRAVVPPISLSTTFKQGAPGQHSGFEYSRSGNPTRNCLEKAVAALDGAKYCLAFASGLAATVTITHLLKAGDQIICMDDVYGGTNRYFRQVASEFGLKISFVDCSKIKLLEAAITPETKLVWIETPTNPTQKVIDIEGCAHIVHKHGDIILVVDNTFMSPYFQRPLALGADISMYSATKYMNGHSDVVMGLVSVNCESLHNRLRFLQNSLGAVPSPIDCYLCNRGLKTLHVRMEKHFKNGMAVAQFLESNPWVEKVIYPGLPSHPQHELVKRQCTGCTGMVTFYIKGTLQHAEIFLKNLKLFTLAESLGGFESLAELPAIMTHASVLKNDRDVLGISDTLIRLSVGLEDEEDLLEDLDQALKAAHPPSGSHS

## CCOc1ccc2nc(Sc3nc(Nc4cccc([N+](=O)[O-])c4)nc(Nc4cc(OC)ccc4OC)n3)sc2c1 [compound 1157172, 2-[(4-(2,5-dimethoxyanilino)-6-(3-nitroanilino)-1,3,5-triazin-2-yl)sulfanyl]-6-ethoxy-1,3-benzothiazole]
CSE
  IC50: 30 µM

## S [sodium hydrosulfide]
infarct
  infarct volume / size of infarct: increased infarct volume

## C#CC[C@H](N)C(=O)O
CSE
  IC50: 40 µM

## NCCO/C=C/[C@H](N)C(=O)O [L-aminoethoxyvinylglycine]
CSE
  IC50: < 1 µM
